Assay results published in article PMC7784773 (Protein Science : A Publication of the Protein Society, 2020).
Where “and” joins values, the source holds several entries; their conditions need not be identical. Equal values may be shown once.

What was measured:
[1] = biological target: T1, R67 dihydrofolate reductase (R67 DHFR; 4F, 5F, 6F and 7F R67 DHFR) (Escherichia coli, UniProt P00383); test: […] NMR titration, chemical shift, […] fit; type: binding
T1 sequence (P00383 1-78): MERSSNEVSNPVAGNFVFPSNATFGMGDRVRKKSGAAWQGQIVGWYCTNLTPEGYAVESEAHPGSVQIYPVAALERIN

[2] = biological target: T1, R67 dihydrofolate reductase (R67 DHFR; 4F, 5F, 6F and 7F R67 DHFR); test: […] NMR titration, peak intensity, […] fit; type: binding; details: Kd (μM) ^a / NADP^+

- Kd [1]: 220 ± 20 µM
- Kd [2]: 360 µM and 320 µM and 380 µM
Compound: NC(=O)c1ccc[n+]([C@@H]2O[C@H](COP(=O)(O)OP(=O)(O)OC[C@H]3O[C@@H](n4cnc5c(N)ncnc54)[C@H](OP(=O)(O)O)[C@@H]3O)[C@@H](O)[C@H]2O)c1 [NADP^+]
